The text below walks through data of the supplement of paper PMC11424490.

Structures are written as SMILES.

Common to all, as to experiment: combination cScore with sotorasib (Bliss gap around IC50) (%PoC); higher = stronger additive effect
For one test, the system named is NCI-H2122. A digest of the protocol: (§1)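 After 24 h in 384-well plates (500 or 800 cells per well), NCI-H2122, NCI-H358 and SW837 cells received concentration matrices and grew for 72 h, except SW837, which grew for 144 h. CellTiter-Glo readings were scaled to vehicle wells and fitted with four-parameter curves. Each score is the averaged Bliss-independence difference (expected minus measured viability) over a region around both monotherapy IC50s, or at top concentrations when no IC50 was reached.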

A further test concerns NCI-H358. The method, boiled down:
as §1

For the next test, the system named is SW837. A digest of the protocol: as §1

For the molecule `CC(C)n1nc(-c2ccc3oc(N)nc3c2)c2c(N)ncnc21` [MLN-0128] + C=CC(=O)N1CCN(c2nc(=O)n(-c3c(C)ccnc3C(C)C)c3nc(-c4c(O)cccc4F)c(F)cc23)[C@@H](C)C1 [sotorasib], the “combination cScore with sotorasib” value with NCI-H2122 was 6.3; with NCI-H358 it was 10.3; in the test with SW837, 15.9.

In the case of `Cc1c(N)nc([C@H](CC(N)=O)NC[C@H](N)C(N)=O)nc1C(=O)N[C@H](C(=O)N[C@H](C)[C@@H](O)[C@H](C)C(=O)N[C@H](C(=O)NCCc1nc(-c2nc(C(=O)NCCC[S+](C)C)cs2)cs1)[C@@H](C)O)[C@@H](OC1OC(CO)C(O)C(O)C1OC1OC(CO)C(O)C(OC(N)=O)C1O)c1cnc[nH]1` (some centres undefined) [Bleomycin] + C=CC(=O)N1CCN(c2nc(=O)n(-c3c(C)ccnc3C(C)C)c3nc(-c4c(O)cccc4F)c(F)cc23)[C@@H](C)C1 [sotorasib], the “combination cScore with sotorasib” value with NCI-H2122 is 19.9; with NCI-H358, -4.36; in the test with SW837, 11.1.

Turning to `CC/C(=C(\c1ccccc1)c1ccc(OCCN(C)C)cc1)c1ccccc1` [Tamoxifen] + C=CC(=O)N1CCN(c2nc(=O)n(-c3c(C)ccnc3C(C)C)c3nc(-c4c(O)cccc4F)c(F)cc23)[C@@H](C)C1 [sotorasib], the “combination cScore with sotorasib” value with NCI-H2122 turned out to be 11.1; in the test with NCI-H358 it was 2.01; in the test with SW837, 0.835.

On to `CC(=O)c1c(C)c2cnc(Nc3ccc(N4CCNCC4)cn3)nc2n(C2CCCC2)c1=O` [Palbociclib] + C=CC(=O)N1CCN(c2nc(=O)n(-c3c(C)ccnc3C(C)C)c3nc(-c4c(O)cccc4F)c(F)cc23)[C@@H](C)C1 [sotorasib], for which the “combination cScore with sotorasib” value in the test with NCI-H2122 is 8.77; in the test with NCI-H358, 3.92; in the test with SW837, 38.3.

On to `CCN(CCCOc1ccc2c(Nc3cc(CC(=O)Nc4cccc(F)c4)[nH]n3)ncnc2c1)CCOP(=O)(O)O` [AZD-1152] + C=CC(=O)N1CCN(c2nc(=O)n(-c3c(C)ccnc3C(C)C)c3nc(-c4c(O)cccc4F)c(F)cc23)[C@@H](C)C1 [sotorasib], for which the “combination cScore with sotorasib” value was 11.3 in the test on NCI-H2122, 1.15 in the test with NCI-H358 and 9.37 in the test with SW837.

Consider `COc1cc(CCc2cc(NC(=O)c3ccc(N4CC(C)NC(C)C4)cc3)n[nH]2)cc(OC)c1` (centres undefined) [AZD4547] + C=CC(=O)N1CCN(c2nc(=O)n(-c3c(C)ccnc3C(C)C)c3nc(-c4c(O)cccc4F)c(F)cc23)[C@@H](C)C1 [sotorasib], for which the “combination cScore with sotorasib” value in the test on NCI-H2122 was 11.8; in the test on NCI-H358, 5.01; with SW837, 8.33.

For the molecule `C[C@H](Nc1ncnc2nc[nH]c12)c1cc2cccc(Cl)c2c(=O)n1-c1ccccc1` [Duvelisib] + C=CC(=O)N1CCN(c2nc(=O)n(-c3c(C)ccnc3C(C)C)c3nc(-c4c(O)cccc4F)c(F)cc23)[C@@H](C)C1 [sotorasib], the figures for the “combination cScore with sotorasib” value in the test on NCI-H2122, in the test on NCI-H358 and with SW837 were 14.2, 4.86 and 18.6, respectively.

As to `CC[C@H](Nc1ncnc2[nH]cnc12)c1nc2cccc(F)c2c(=O)n1-c1ccccc1` [Cal-101] + C=CC(=O)N1CCN(c2nc(=O)n(-c3c(C)ccnc3C(C)C)c3nc(-c4c(O)cccc4F)c(F)cc23)[C@@H](C)C1 [sotorasib], the “combination cScore with sotorasib” value was found to be 29.1 in the test with NCI-H2122, 3.19 in the test on NCI-H358 and 7.76 in the test on SW837.

`CCN1CCN(Cc2ccc(Nc3ncc(F)c(-c4cc(F)c5nc(C)n(C(C)C)c5c4)n3)nc2)CC1` [Abemaciclib] + C=CC(=O)N1CCN(c2nc(=O)n(-c3c(C)ccnc3C(C)C)c3nc(-c4c(O)cccc4F)c(F)cc23)[C@@H](C)C1 [sotorasib]: the figures for the “combination cScore with sotorasib” value in the test with NCI-H2122, in the test with NCI-H358 and with SW837 were 9.29, 6.78 and 19.6, respectively.

In the case of `COc1ncc(-c2ccc3nccc(-c4ccnnc4)c3c2)cc1NS(=O)(=O)c1ccc(F)cc1F` + C=CC(=O)N1CCN(c2nc(=O)n(-c3c(C)ccnc3C(C)C)c3nc(-c4c(O)cccc4F)c(F)cc23)[C@@H](C)C1 [sotorasib], the “combination cScore with sotorasib” value turned out to be 20.8 in the test with NCI-H2122, 5.96 in the test on NCI-H358 and 8.72 in the test on SW837.

`C[C@H](Nc1ccc2c(c1)OCCn1cc(N3C(=O)OC[C@H]3C(F)F)nc1-2)C(N)=O` [GDC-0077] + C=CC(=O)N1CCN(c2nc(=O)n(-c3c(C)ccnc3C(C)C)c3nc(-c4c(O)cccc4F)c(F)cc23)[C@@H](C)C1 [sotorasib]: the “combination cScore with sotorasib” value in the test on NCI-H2122 was 25.4; in the test on NCI-H358, 3.7; in the test with SW837 it was 18.3.

In the case of `COc1cc(Nc2ncc(F)c(Nc3ccc4c(n3)N(COP(=O)(O)O)C(=O)C(C)(C)O4)n2)cc(OC)c1OC` [Fostamatinib] + C=CC(=O)N1CCN(c2nc(=O)n(-c3c(C)ccnc3C(C)C)c3nc(-c4c(O)cccc4F)c(F)cc23)[C@@H](C)C1 [sotorasib], the “combination cScore with sotorasib” value is 23.3 with NCI-H2122, 8.55 in the test on NCI-H358 and 23.7 in the test with SW837.

With `Cc1nc(Nc2n[nH]c3c2CN(C(=O)N[C@H](CN(C)C)c2ccccc2)C3(C)C)c2sccc2n1` + C=CC(=O)N1CCN(c2nc(=O)n(-c3c(C)ccnc3C(C)C)c3nc(-c4c(O)cccc4F)c(F)cc23)[C@@H](C)C1 [sotorasib], the “combination cScore with sotorasib” value in the test with NCI-H2122 was 17.5; with NCI-H358 it was -0.36; in the test with SW837, 4.19.

For `CC(C)C[C@H](NC(=O)[C@H](Cc1ccccc1)NC(=O)c1cnccn1)B(O)O` [Bortezomib] + C=CC(=O)N1CCN(c2nc(=O)n(-c3c(C)ccnc3C(C)C)c3nc(-c4c(O)cccc4F)c(F)cc23)[C@@H](C)C1 [sotorasib], the “combination cScore with sotorasib” value with NCI-H2122 was 5.05; in the test with NCI-H358, 0.21; in the test with SW837 it was -5.84.

For `CN(C)C/C=C/C(=O)Nc1cc2c(Nc3ccc(F)c(Cl)c3)ncnc2cc1O[C@H]1CCOC1` [Afatinib] + C=CC(=O)N1CCN(c2nc(=O)n(-c3c(C)ccnc3C(C)C)c3nc(-c4c(O)cccc4F)c(F)cc23)[C@@H](C)C1 [sotorasib], the “combination cScore with sotorasib” value was 22.8 with NCI-H2122, 11.4 in the test on NCI-H358 and 20.1 in the test with SW837.

Turning to `CC(C)N(CCCNC(=O)Nc1ccc(C(C)(C)C)cc1)C[C@H]1O[C@@H](n2ccc3c(N)ncnc32)[C@H](O)[C@@H]1O` + C=CC(=O)N1CCN(c2nc(=O)n(-c3c(C)ccnc3C(C)C)c3nc(-c4c(O)cccc4F)c(F)cc23)[C@@H](C)C1 [sotorasib], the figures for the “combination cScore with sotorasib” value in the test with NCI-H2122, in the test on NCI-H358 and with SW837 were 8.67, 2.07 and 1.84, respectively.

Turning to `Nc1cc(C(F)(F)F)c(-c2cc(N3CCOCC3)nc(N3CCOCC3)n2)cn1` [BKM120] + C=CC(=O)N1CCN(c2nc(=O)n(-c3c(C)ccnc3C(C)C)c3nc(-c4c(O)cccc4F)c(F)cc23)[C@@H](C)C1 [sotorasib], the “combination cScore with sotorasib” value in the test with NCI-H2122 was determined as 16.9; in the test with NCI-H358 it was 4.4; in the test with SW837 it was 15.9.

Turning to `O=C(c1cc(Cc2n[nH]c(=O)c3ccccc23)ccc1F)N1CCN(C(=O)C2CC2)CC1` [Olaparib] + C=CC(=O)N1CCN(c2nc(=O)n(-c3c(C)ccnc3C(C)C)c3nc(-c4c(O)cccc4F)c(F)cc23)[C@@H](C)C1 [sotorasib], the “combination cScore with sotorasib” value was 6.94 in the test with NCI-H2122, 1.2 with NCI-H358 and 8.33 in the test with SW837.

With `CCCc1cc(C)[nH]c(=O)c1CNC(=O)c1cc(-c2ccnc(N3CCN(C)CC3)c2)cc2c1cnn2C(C)C` [GSK343] + C=CC(=O)N1CCN(c2nc(=O)n(-c3c(C)ccnc3C(C)C)c3nc(-c4c(O)cccc4F)c(F)cc23)[C@@H](C)C1 [sotorasib], the entries for the “combination cScore with sotorasib” value with NCI-H2122, in the test with NCI-H358 and in the test on SW837 were 8.7, 2.88 and 9.75, respectively.

For `C[C@H](NC(=O)c1c(N)nn2cccnc12)c1cc2cccc(C#Cc3cnn(C)c3)c2c(=O)n1-c1ccccc1` [IPI-549] + C=CC(=O)N1CCN(c2nc(=O)n(-c3c(C)ccnc3C(C)C)c3nc(-c4c(O)cccc4F)c(F)cc23)[C@@H](C)C1 [sotorasib], the “combination cScore with sotorasib” value worked out at 15.1 in the test on NCI-H2122, 2.47 with NCI-H358 and 4.45 in the test with SW837.

In the case of `C[C@@H]1OCC2(CCN(c3cnc(Sc4ccnc(N)c4Cl)c(N)n3)CC2)[C@@H]1N` [TNO155] + C=CC(=O)N1CCN(c2nc(=O)n(-c3c(C)ccnc3C(C)C)c3nc(-c4c(O)cccc4F)c(F)cc23)[C@@H](C)C1 [sotorasib], the results for the “combination cScore with sotorasib” value in the test with NCI-H2122, in the test with NCI-H358 and in the test on SW837 were 41.9, 10.6 and 41.3, respectively.

In the case of `COC(=O)[C@]12CCC(C)(C)C[C@H]1[C@H]1C(=O)C=C3[C@@]4(C)C=C(C#N)C(=O)C(C)(C)[C@@H]4CC[C@@]3(C)[C@]1(C)CC2` [Bardoxolone methyl] + C=CC(=O)N1CCN(c2nc(=O)n(-c3c(C)ccnc3C(C)C)c3nc(-c4c(O)cccc4F)c(F)cc23)[C@@H](C)C1 [sotorasib], the “combination cScore with sotorasib” value was 13 in the test on NCI-H2122, -1.43 in the test on NCI-H358 and 3 in the test with SW837.

On to `Cc1ccc(C(=O)Nc2ccc(CN3CCN(C)CC3)c(C(F)(F)F)c2)cc1C#Cc1cnc2cccnn12` [Ponatinib] + C=CC(=O)N1CCN(c2nc(=O)n(-c3c(C)ccnc3C(C)C)c3nc(-c4c(O)cccc4F)c(F)cc23)[C@@H](C)C1 [sotorasib], for which the figures for the “combination cScore with sotorasib” value with NCI-H2122, in the test with NCI-H358 and in the test on SW837 were 19.1, 0.16 and 1.65, respectively.
